Measured values from the NIST ThermoML archive (doi:10.1016/j.jct.2007.11.010).
Numbers after ± are expanded uncertainties.

Conditions: 101.33 kPa, Liquid

Row | SMILES | mass density (293.15 K) | mass density (298.15 K) | mass density (303.15 K) | mass density (313.15 K) | mass density (323.15 K)
1 | OCCN1CCOCC1 [4-morpholineethanol] | 1076.58 ± 0.97 kg/m3 | 1071.3 ± 0.94 kg/m3 | 1066.51 ± 0.92 kg/m3 | 1059.19 ± 0.88 kg/m3 | 1052.64 ± 0.84 kg/m3
2 | CCCO [propan-1-ol] | 803.56 ± 0.47 kg/m3 | 799.71 ± 0.48 kg/m3 | 795.58 ± 0.48 kg/m3 | 787.34 ± 0.49 kg/m3 | 778.97 ± 0.51 kg/m3
3 | CCC(C)O (stereo not given) [butan-2-ol] | 805.56 ± 1.3 kg/m3 | 802.43 ± 1.4 kg/m3 | 797.76 ± 1.4 kg/m3 | 790.11 ± 1.4 kg/m3 | 784.92 ± 1.4 kg/m3
4 | CCO [ethanol] | 788.33 ± 0.49 kg/m3 | 784.97 ± 0.5 kg/m3 | 780.72 ± 0.5 kg/m3 | 772.61 ± 0.52 kg/m3 | 764.14 ± 0.53 kg/m3
5 | CC(C)O [propan-2-ol] | 785.18 ± 0.5 kg/m3 | 781.31 ± 0.5 kg/m3 | 776.66 ± 0.51 kg/m3 | 767.83 ± 0.52 kg/m3 | 758.71 ± 0.54 kg/m3
6 | CCCCO [butan-1-ol] | 809.52 ± 0.46 kg/m3 | 805.88 ± 0.47 kg/m3 | 801.99 ± 0.47 kg/m3 | 794.34 ± 0.48 kg/m3 | 786.67 ± 0.5 kg/m3
